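Growth conditions: 96-well plates. Treatment: test compound, 48 hours, 5 concentrations. Analysis: linear interpolation between bracketing concentrations; unreached endpoints set to highest concentration. Definition used: TGI = concentration required for complete inhibition of growth.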
Key:
Test in all cases: NCI anticancer screen, dose series, 48 h
SR leukemia = test system: SR leukemia
CCRF-CEM leukemia = test system: CCRF-CEM leukemia
K-562 leukemia = test system: K-562 leukemia
NCI-H23 lung = test system: NCI-H23 lung
COLO 205 colon = test system: COLO 205 colon
HT29 colon = test system: HT29 colon
SK-MEL-2 melanoma = test system: SK-MEL-2 melanoma
OVCAR-4 ovarian = test system: OVCAR-4 ovarian
CAKI-1 renal = test system: CAKI-1 renal
OVCAR-3 ovarian = test system: OVCAR-3 ovarian
HOP-62 NSCLC = test system: HOP-62 NSCLC
NCI-H522 lung = test system: NCI-H522 lung
SK-MEL-5 melanoma = test system: SK-MEL-5 melanoma
A549 NSCLC = test system: A549 NSCLC
SK-OV-3 ovarian = test system: SK-OV-3 ovarian
NCI-H460 lung = test system: NCI-H460 lung
OVCAR-8 ovarian = test system: OVCAR-8 ovarian
PC-3 prostate = test system: PC-3 prostate
HCT-15 colon = test system: HCT-15 colon
SF-268 CNS = test system: SF-268 CNS
LOX IMVI melanoma = test system: LOX IMVI melanoma
NCI/ADR-RES ovarian = test system: NCI/ADR-RES ovarian
RPMI-8226 leukemia = test system: RPMI-8226 leukemia
EKVX NSCLC = test system: EKVX NSCLC
M14 melanoma = test system: M14 melanoma
HCC-2998 colon = test system: HCC-2998 colon
BT-549 breast = test system: BT-549 breast
SK-MEL-28 melanoma = test system: SK-MEL-28 melanoma
U251 CNS = test system: U251 CNS
UACC-257 melanoma = test system: UACC-257 melanoma
HS 578T breast = test system: HS 578T breast
A498 renal = test system: A498 renal
SF-295 CNS = test system: SF-295 CNS
MDA-MB-435 = test system: MDA-MB-435
UO-31 renal = test system: UO-31 renal
MCF7 breast = test system: MCF7 breast
T-47D breast = test system: T-47D breast
MOLT-4 leukemia = test system: MOLT-4 leukemia
KM12 colon = test system: KM12 colon
OVCAR-5 ovarian = test system: OVCAR-5 ovarian
HL-60(TB) leukemia = test system: HL-60(TB) leukemia
ACHN renal = test system: ACHN renal
DU-145 prostate = test system: DU-145 prostate
786-0 renal = test system: 786-0 renal
IGROV1 ovarian = test system: IGROV1 ovarian
SW-620 colon = test system: SW-620 colon
UACC-62 melanoma = test system: UACC-62 melanoma
MDA-N = test system: MDA-N
SNB-19 CNS = test system: SNB-19 CNS
MALME-3M melanoma = test system: MALME-3M melanoma
HCT-116 colon = test system: HCT-116 colon
SF-539 CNS = test system: SF-539 CNS
MDA-MB-231 breast = test system: MDA-MB-231 breast
SNB-75 CNS = test system: SNB-75 CNS
HOP-92 NSCLC = test system: HOP-92 NSCLC
SN12C renal = test system: SN12C renal
TK-10 renal = test system: TK-10 renal
RXF 393 renal = test system: RXF 393 renal
NCI-H226 lung = test system: NCI-H226 lung

## COc1cccc(C23CCCC(C2)N(C)CC3OC(=O)c2ccccc2)c1OC (stereo not drawn)
SR leukemia
  TGI: 40.9 µM
CCRF-CEM leukemia
  TGI: 25 µM
K-562 leukemia
  TGI: > 100 µM
NCI-H23 lung
  TGI: 44.6 µM
COLO 205 colon
  TGI: 29 µM
HT29 colon
  TGI: 43.3 µM
SK-MEL-2 melanoma
  TGI: > 100 µM
OVCAR-4 ovarian
  TGI: > 100 µM
CAKI-1 renal
  TGI: > 100 µM
OVCAR-3 ovarian
  TGI: > 100 µM
HOP-62 NSCLC
  TGI: > 100 µM
NCI-H522 lung
  TGI: 67.6 µM
SK-MEL-5 melanoma
  TGI: 27.4 µM
A549 NSCLC
  TGI: > 100 µM
SK-OV-3 ovarian
  TGI: 97.7 µM
NCI-H460 lung
  TGI: > 100 µM
OVCAR-8 ovarian
  TGI: 38.7 µM
PC-3 prostate
  TGI: 81.8 µM
HCT-15 colon
  TGI: 72.7 µM
SF-268 CNS
  TGI: > 100 µM
LOX IMVI melanoma
  TGI: 45.2 µM
NCI/ADR-RES ovarian
  TGI: 67.1 µM
RPMI-8226 leukemia
  TGI: 55.3 µM
EKVX NSCLC
  TGI: 72.7 µM
M14 melanoma
  TGI: 29.6 µM
HCC-2998 colon
  TGI: 78.1 µM
BT-549 breast
  TGI: 44.9 µM
SK-MEL-28 melanoma
  TGI: 87.8 µM
U251 CNS
  TGI: > 100 µM
UACC-257 melanoma
  TGI: > 100 µM
HS 578T breast
  TGI: 78.6 µM
A498 renal
  TGI: > 100 µM
SF-295 CNS
  TGI: 77.7 µM
MDA-MB-435
  TGI: 38.4 µM
UO-31 renal
  TGI: > 100 µM
MCF7 breast
  TGI: > 100 µM
T-47D breast
  TGI: 81.2 µM
MOLT-4 leukemia
  TGI: 60.3 µM
KM12 colon
  TGI: 61.3 µM
OVCAR-5 ovarian
  TGI: > 100 µM
HL-60(TB) leukemia
  TGI: 28.3 µM
ACHN renal
  TGI: > 100 µM
DU-145 prostate
  TGI: > 100 µM
786-0 renal
  TGI: > 100 µM
IGROV1 ovarian
  TGI: 37.4 µM
SW-620 colon
  TGI: > 100 µM
UACC-62 melanoma
  TGI: 84.5 µM
MDA-N
  TGI: 37.7 µM
SNB-19 CNS
  TGI: > 100 µM
MALME-3M melanoma
  TGI: 48.1 µM
HCT-116 colon
  TGI: > 100 µM
SF-539 CNS
  TGI: > 100 µM

## Cc1nc2cccc(F)c2c(=O)n1-c1nnc(C(F)(F)F)s1
SR leukemia
  TGI: > 10 µM
CCRF-CEM leukemia
  TGI: > 10 µM
K-562 leukemia
  TGI: > 10 µM
NCI-H23 lung
  TGI: > 10 µM
COLO 205 colon
  TGI: > 10 µM
HT29 colon
  TGI: > 10 µM
SK-MEL-2 melanoma
  TGI: > 10 µM
OVCAR-4 ovarian
  TGI: > 10 µM
CAKI-1 renal
  TGI: > 10 µM
OVCAR-3 ovarian
  TGI: > 10 µM
HOP-62 NSCLC
  TGI: > 10 µM
NCI-H522 lung
  TGI: > 10 µM
SK-MEL-5 melanoma
  TGI: > 10 µM
A549 NSCLC
  TGI: > 10 µM
SK-OV-3 ovarian
  TGI: > 10 µM
MDA-MB-231 breast
  TGI: > 10 µM
NCI-H460 lung
  TGI: > 10 µM
OVCAR-8 ovarian
  TGI: > 10 µM
SNB-75 CNS
  TGI: > 10 µM
PC-3 prostate
  TGI: > 10 µM
HCT-15 colon
  TGI: > 10 µM
SF-268 CNS
  TGI: > 10 µM
LOX IMVI melanoma
  TGI: > 10 µM
HOP-92 NSCLC
  TGI: > 10 µM
NCI/ADR-RES ovarian
  TGI: > 10 µM
RPMI-8226 leukemia
  TGI: > 10 µM
EKVX NSCLC
  TGI: > 10 µM
M14 melanoma
  TGI: > 10 µM
HCC-2998 colon
  TGI: > 10 µM
SK-MEL-28 melanoma
  TGI: > 10 µM
U251 CNS
  TGI: > 10 µM
UACC-257 melanoma
  TGI: > 10 µM
HS 578T breast
  TGI: > 10 µM
SF-295 CNS
  TGI: > 10 µM
MDA-MB-435
  TGI: > 10 µM
UO-31 renal
  TGI: > 10 µM
MCF7 breast
  TGI: > 10 µM
SN12C renal
  TGI: > 10 µM
T-47D breast
  TGI: > 10 µM
MOLT-4 leukemia
  TGI: > 10 µM
TK-10 renal
  TGI: > 10 µM
KM12 colon
  TGI: > 10 µM
OVCAR-5 ovarian
  TGI: > 10 µM
HL-60(TB) leukemia
  TGI: > 10 µM
RXF 393 renal
  TGI: > 10 µM
ACHN renal
  TGI: > 10 µM
DU-145 prostate
  TGI: > 10 µM
786-0 renal
  TGI: > 10 µM
IGROV1 ovarian
  TGI: > 10 µM
SW-620 colon
  TGI: > 10 µM
UACC-62 melanoma
  TGI: > 10 µM
MDA-N
  TGI: > 10 µM
NCI-H226 lung
  TGI: > 10 µM
SNB-19 CNS
  TGI: > 10 µM
HCT-116 colon
  TGI: > 10 µM
SF-539 CNS
  TGI: > 10 µM

Source: PubChem BioAssay (NCI)
